In PMC4284807, “Activation of RidA chaperone function by N-chlorination” (Nature Communications, 2014):

Columns and labels:
[1] = target: T1, RidA (untreated) (Escherichia coli, UniProt P0AF93); experiment: fluorescence titration of dye with protein; format: binding; details: protein varied 1-200 μM, 0.2 μM dye, 40 mM HEPES-KOH pH 7.4, emission 613 nm, hydrophobicity probe
T1 construct: full-length recombinant RidA, 13,480 Da (fits loss of initiator Met), trimer; untreated
T1 sequence (P0AF93 2-128): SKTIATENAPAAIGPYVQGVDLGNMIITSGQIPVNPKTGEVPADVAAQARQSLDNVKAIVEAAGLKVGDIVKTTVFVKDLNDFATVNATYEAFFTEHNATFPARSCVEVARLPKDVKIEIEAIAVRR

[2] = target: T2, IlvA (Escherichia coli, UniProt P04968); experiment: alpha-ketobutyrate formation at […] nm; format: biochemical; details: 10 mM threonine, 0.9 μM IlvA, MES/HEPES/TAPS pH 7.5, 20 °C; accelerated by untreated RidA
T2 sequence (P04968 1-514): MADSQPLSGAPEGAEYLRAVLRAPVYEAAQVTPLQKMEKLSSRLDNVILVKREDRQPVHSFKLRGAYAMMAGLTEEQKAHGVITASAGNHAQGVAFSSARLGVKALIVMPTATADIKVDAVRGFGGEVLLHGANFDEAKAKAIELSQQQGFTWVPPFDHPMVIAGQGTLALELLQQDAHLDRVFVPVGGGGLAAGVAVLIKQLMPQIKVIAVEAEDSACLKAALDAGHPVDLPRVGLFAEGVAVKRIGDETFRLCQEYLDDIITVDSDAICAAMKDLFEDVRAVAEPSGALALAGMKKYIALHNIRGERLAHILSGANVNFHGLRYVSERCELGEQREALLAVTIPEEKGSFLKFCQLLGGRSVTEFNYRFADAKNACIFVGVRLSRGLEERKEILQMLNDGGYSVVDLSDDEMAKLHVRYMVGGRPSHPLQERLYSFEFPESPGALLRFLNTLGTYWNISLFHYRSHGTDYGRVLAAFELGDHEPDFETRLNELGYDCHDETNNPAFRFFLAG

[3] = target: the molecule itself; experiment: SEC; analytical gel filtration, Superdex 75 10/300 GL, flow rate 0.5 ml min^-1; untreated RidA or RidA treated with a 10-fold excess of HOCl for 5 min at 37 °C (HOCl removed)

Q: For `CCN(CC)c1ccc2nc3c4ccccc4c(=O)cc-3oc2c1` [Nile red], which Kd [1] is on record?
A: The Kd was 121 µM.

Q: Which “alpha-ketobutyrate formation at 230 nm” value [2] does the source give for `C[C@@H](O)[C@H](N)C(=O)O` [threonine] here?
A: The value was “α-ketobutyrate generation from threonine catalysed by threonine deaminase IlvA”.

B1: E. coli RidA, untreated (natural protein, UniProt P0AF93 1-128, looked up)
chain: MSKTIATENAPAAIGPYVQGVDLGNMIITSGQIPVNPKTGEVPADVAAQARQSLDNVKAIVEAAGLKVGDIVKTTVFVKDLNDFATVNATYEAFFTEHNATFPARSCVEVARLPKDVKIEIEAIAVRR
notes: RidA of Escherichia coli, member of the YjgF/YER057c/UK114 family; mass of the unmodified full-length protein printed as 13,480 Da; The printed mass of 13,480 Da may mean that the first methionine is missing (surmise); also called RidA-UT; untreated RidA
Q: With B1 as the molecule, how does the “stoichiometry N” value [3] read?
A: The value was 3.

B2: HOCl-treated RidA (RidA_(HOCl)) (natural protein, E. coli, UniProt P0AF93 1-128, looked up)
chain: B1 chain
modifications: N-chlorinated: up to seven chlorine atoms added (positions not mapped); up to five oxygen atoms added to methionine and cysteine residues
notes: RidA of Escherichia coli, treated with HOCl; The chlorinated residues are not identified; the authors suspect lysine, arginine and the N-terminus; also called N-chlorinated RidA; source: HOCl removed with Micro Bio-Spin columns
Q: Does B2 bind [3]?
A: Result: binds
